Measured values: paper PMC7297817, “Pharmacological Characterization of a Betaine/GABA Transporter 1 (BGT1) Inhibitor Displaying an Unusual Biphasic Inhibition Profile and Anti-seizure Effects” (Neurochemical Research, 2020)

Columns and labels:
Alpha1B = target: T1, Alpha1B (Homo sapiens, UniProt P35368); assay: NIMH PDSP radioligand binding, Alpha1B; conditions: radioligand [3H]prazosine, n=4
T1 construct: purchased NIMH Psychoactive Drug Screening Program (PDSP)

[1] = Rotarod test of minimal motor impairment; format: in vivo, mouse; conditions: mouse, in vivo, ip; CF-1 mice of the MES test; probit analysis
Experimental: (§1) The rotarod test was performed just prior to the three seizure tests.
(§2) Probit analysis was used to analyse the efficacy and tolerability results obtained from the dose–response studies and to calculate the median effective (ED50) dose, the median toxic dose (TD50), and the 95% confidence interval.

mice = assay: Rotarod test of minimal motor impairment; format: in vivo, mouse
Experimental: as §1, §2

Alpha1A = target: T2, Alpha1A (Homo sapiens, UniProt P35348); assay: NIMH PDSP radioligand binding, Alpha1A; conditions: radioligand [3H]prazosine, n=4
T2 construct: purchased NIMH Psychoactive Drug Screening Program (PDSP)

AGS Frings mice = assay: Audiogenic induced seizure test; format: in vivo, mouse
Source text: Male audiogenic-susceptible (AGS) Frings mice were obtained from an in-house breeding facility at the University of Utah (Salt Lake City, UT, USA). Male CF-1 mice for the maximal electroshock (MES) test and the subcutaneous pentylenetetrazol (s.c.PTZ) seizure threshold test were purchased from Charles River (Kingston, WA, USA). All mice were housed in a temperature, humidity, and light (on at 6:00 AM) controlled facility at the University of Utah with access to ad libitum food and water except during testing. All procedures were carried out at the University of Utah in concordance with the National Institutes of Health Guidelines for the Care and Use of Laboratory Animals and under approval from the University of Utah’s Institutional Animal Care and Use Committee. The mice were euthanized in accordance with Public Health Service policies on the humane care of laboratory animals. […] The seizures were induced as previously described. In brief, Frings mice were placed in a Plexiglas cylinder (diameter 15 cm, height 18 cm) connected to an audio transducer and exposed to a sound stimulus of 110 decibel (11 kHz) for a duration of 20 s. […] Probit analysis was used to analyse the efficacy and tolerability results obtained from the dose–response studies and to calculate the median effective (ED50) dose, the median toxic dose (TD50), and the 95% confidence interval.

5-HT6 = target: T3, 5-HT6 (Homo sapiens, UniProt P50406); assay: NIMH PDSP radioligand binding, 5-HT6; conditions: radioligand [3H]LSD, n=4
T3 construct: NIMH PDSP (screening service)

mGAT3 = target: T4, mGAT3 (Mus musculus, UniProt P31650); assay: [3H]GABA uptake at mGAT3 stably expressed in HEK-293 cells; format: cell-based; conditions: N=3
T4 construct: expressed in transfected cells
Experimental: The HEK-293 and Flp-In CHO cell lines stably expressing mouse (m) and human (h) GATs, respectively, have been described previously and were cultured accordingly. The tsA201 cell line was used for transient expression while the MDCK II cell line express BGT1 endogenously. Both cell lines were cultured as described. tsA201 cells were transfected with DNA constructs (8 μg per 10 cm dish if not otherwise mentioned) using 40 μL PolyFect transfection reagent according to the manufacturer’s protocol (Qiagen, Venlo, Netherlands). The DNA constructs encoding hBGT1, hGAT1-3 [36], the mutated constructs hBGT1 Q299 and hGAT3 L314Q described previously, and hBGT Y453A were synthesized and sequence validated by Genscript (NJ, USA).
The [^3H]GABA competition uptake assay was performed as previously described. A minor change, however, was introduced for uptake in MDCK II cells, in which 100 nM [^3H]GABA was used for a 15 min incubation period at 37 °C instead of 30 nM [^3H]GABA and 3 min incubation. Studies related to the inhibition curves with GABA and BPDBA at hBGT1 were obtained both with and without the presence of 10 μM ATP during the [^3H]GABA uptake assay.
The [^3H]GABA uptake data was normalized to the percentage of total uptake in the individual experiments in the presence of the lowest compound concentration or no compound present. […]

H1 = target: T5, H1 (Homo sapiens, UniProt P35367); assay: NIMH PDSP radioligand binding, H1; conditions: radioligand [3H]pyrilamine, n=4
T5 construct: purchased NIMH Psychoactive Drug Screening Program (PDSP)

5-HT7 = target: T6, 5-HT7 (Homo sapiens, UniProt P34969); assay: NIMH PDSP radioligand binding, 5-HT7; conditions: radioligand [3H]LSD, n=4
T6 construct: purchased NIMH Psychoactive Drug Screening Program (PDSP)

Alpha2A = target: T7, Alpha2A (Homo sapiens, UniProt P08913); assay: NIMH PDSP radioligand binding, Alpha2A; conditions: radioligand [3H]rauwolscine, n=4
T7 construct: purchased NIMH Psychoactive Drug Screening Program (PDSP)

Beta3 = target: T8, Beta3 (Homo sapiens, UniProt P13945); assay: NIMH PDSP radioligand binding, Beta3; conditions: radioligand [3H]CGP12177, n=4
T8 construct: purchased NIMH Psychoactive Drug Screening Program (PDSP)

5-HT1D = target: T9, 5-HT1D (Homo sapiens, UniProt P28221); assay: NIMH PDSP radioligand binding, 5-HT1D; conditions: radioligand [3H]GR125743, n=4
T9 construct: purchased NIMH Psychoactive Drug Screening Program (PDSP)

MOR = target: T10, MOR (Homo sapiens, UniProt P35372); assay: NIMH PDSP radioligand binding, MOR; conditions: radioligand [3H]DAMGO, n=4
T10 construct: purchased NIMH Psychoactive Drug Screening Program (PDSP)
T10 sequence (P35372 whole entry): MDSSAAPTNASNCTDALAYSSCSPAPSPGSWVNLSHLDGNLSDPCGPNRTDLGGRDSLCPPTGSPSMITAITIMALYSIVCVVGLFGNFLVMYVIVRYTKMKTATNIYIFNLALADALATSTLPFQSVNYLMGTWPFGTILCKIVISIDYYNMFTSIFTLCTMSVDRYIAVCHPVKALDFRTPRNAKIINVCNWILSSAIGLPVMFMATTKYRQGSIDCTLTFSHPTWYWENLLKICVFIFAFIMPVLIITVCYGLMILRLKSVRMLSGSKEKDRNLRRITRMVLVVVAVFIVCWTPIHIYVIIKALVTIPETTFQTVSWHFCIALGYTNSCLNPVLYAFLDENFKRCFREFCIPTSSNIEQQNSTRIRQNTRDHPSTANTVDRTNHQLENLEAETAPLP

T4 sequence (P31650 whole entry): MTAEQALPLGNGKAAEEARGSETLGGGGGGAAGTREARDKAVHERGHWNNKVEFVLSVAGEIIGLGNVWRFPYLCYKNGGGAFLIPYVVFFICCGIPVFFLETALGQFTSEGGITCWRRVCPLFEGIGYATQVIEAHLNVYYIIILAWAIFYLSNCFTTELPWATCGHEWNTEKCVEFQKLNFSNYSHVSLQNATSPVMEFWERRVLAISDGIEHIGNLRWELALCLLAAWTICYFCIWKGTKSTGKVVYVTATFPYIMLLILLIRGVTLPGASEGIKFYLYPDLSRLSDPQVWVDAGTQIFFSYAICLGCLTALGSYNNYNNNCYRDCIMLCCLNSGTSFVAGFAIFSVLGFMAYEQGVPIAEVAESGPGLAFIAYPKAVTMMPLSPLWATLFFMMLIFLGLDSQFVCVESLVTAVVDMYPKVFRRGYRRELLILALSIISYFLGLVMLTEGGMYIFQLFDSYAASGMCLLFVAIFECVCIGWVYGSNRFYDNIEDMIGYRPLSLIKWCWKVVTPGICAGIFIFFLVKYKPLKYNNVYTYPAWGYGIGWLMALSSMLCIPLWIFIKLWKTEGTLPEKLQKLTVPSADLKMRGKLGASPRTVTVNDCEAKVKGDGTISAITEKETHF
T8 sequence (P13945 whole entry): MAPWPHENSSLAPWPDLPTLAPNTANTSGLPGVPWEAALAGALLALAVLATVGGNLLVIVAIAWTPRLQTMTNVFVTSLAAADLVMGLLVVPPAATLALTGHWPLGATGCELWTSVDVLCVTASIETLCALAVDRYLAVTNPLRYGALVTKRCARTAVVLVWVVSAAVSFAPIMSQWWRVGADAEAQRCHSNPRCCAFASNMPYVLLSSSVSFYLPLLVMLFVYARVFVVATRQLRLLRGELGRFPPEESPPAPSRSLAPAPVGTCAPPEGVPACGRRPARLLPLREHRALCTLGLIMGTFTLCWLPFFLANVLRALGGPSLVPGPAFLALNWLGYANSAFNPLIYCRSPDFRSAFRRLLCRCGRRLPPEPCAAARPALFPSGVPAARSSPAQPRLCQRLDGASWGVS
T9 sequence (P28221 whole entry): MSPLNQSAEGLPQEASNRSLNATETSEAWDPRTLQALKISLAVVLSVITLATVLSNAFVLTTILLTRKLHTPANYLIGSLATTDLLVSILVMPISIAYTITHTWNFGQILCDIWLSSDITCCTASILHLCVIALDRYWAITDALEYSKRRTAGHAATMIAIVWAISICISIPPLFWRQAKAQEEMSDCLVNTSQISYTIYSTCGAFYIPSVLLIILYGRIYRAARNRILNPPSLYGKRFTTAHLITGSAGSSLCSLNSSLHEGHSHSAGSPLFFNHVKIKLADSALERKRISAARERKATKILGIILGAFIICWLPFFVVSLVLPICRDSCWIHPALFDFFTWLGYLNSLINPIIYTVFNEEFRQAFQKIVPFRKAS
T5 sequence (P35367 whole entry): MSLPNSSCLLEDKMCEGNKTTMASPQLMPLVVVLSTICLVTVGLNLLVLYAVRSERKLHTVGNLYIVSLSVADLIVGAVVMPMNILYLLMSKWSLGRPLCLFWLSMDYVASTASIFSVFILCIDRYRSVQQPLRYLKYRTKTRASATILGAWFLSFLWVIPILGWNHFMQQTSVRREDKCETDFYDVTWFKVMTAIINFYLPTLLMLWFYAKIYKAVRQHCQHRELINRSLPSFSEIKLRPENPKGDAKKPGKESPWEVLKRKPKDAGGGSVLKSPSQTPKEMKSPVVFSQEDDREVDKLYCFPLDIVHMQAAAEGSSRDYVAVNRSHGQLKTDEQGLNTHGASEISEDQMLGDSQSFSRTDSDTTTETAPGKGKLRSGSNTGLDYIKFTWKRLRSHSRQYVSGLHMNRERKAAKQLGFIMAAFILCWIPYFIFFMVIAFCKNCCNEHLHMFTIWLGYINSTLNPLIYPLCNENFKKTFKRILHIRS
T1 sequence (P35368 whole entry): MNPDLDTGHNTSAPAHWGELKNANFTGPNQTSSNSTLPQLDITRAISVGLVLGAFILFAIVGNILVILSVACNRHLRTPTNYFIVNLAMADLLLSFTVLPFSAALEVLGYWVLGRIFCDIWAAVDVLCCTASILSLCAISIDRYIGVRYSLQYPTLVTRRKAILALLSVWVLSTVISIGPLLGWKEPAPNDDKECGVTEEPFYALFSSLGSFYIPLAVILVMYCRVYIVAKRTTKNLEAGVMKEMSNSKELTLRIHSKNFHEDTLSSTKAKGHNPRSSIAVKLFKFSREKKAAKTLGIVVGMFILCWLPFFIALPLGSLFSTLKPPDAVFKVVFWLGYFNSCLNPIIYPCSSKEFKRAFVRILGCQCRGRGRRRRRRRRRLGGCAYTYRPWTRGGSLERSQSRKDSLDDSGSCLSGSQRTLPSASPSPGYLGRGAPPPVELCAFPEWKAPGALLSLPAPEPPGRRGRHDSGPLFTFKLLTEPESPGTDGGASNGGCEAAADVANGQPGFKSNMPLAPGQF
T3 sequence (P50406 whole entry, species assumed): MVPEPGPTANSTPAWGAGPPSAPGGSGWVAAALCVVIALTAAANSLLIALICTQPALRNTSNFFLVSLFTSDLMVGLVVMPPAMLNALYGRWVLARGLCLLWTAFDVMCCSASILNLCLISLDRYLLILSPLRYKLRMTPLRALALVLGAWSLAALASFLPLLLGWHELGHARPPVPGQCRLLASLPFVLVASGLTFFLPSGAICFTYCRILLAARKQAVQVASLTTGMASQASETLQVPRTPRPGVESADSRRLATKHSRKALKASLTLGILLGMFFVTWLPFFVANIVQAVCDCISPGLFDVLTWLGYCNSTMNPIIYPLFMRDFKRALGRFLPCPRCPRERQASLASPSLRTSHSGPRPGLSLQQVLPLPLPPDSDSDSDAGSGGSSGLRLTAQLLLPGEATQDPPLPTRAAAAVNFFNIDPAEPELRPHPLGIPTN
T6 sequence (P34969 whole entry): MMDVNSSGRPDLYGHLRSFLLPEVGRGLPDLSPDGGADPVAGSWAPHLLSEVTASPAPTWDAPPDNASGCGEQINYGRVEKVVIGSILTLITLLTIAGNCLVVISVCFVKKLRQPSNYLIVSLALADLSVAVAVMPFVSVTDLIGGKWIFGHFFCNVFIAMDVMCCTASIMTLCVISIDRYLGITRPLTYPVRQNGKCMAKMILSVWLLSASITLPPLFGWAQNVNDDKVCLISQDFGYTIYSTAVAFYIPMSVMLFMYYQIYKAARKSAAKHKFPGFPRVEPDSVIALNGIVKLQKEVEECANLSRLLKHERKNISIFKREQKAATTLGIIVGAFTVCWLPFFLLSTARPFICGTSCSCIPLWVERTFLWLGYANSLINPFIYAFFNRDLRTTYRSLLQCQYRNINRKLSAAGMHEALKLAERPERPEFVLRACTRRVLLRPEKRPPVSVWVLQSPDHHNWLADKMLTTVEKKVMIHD
T7 sequence (P08913 whole entry): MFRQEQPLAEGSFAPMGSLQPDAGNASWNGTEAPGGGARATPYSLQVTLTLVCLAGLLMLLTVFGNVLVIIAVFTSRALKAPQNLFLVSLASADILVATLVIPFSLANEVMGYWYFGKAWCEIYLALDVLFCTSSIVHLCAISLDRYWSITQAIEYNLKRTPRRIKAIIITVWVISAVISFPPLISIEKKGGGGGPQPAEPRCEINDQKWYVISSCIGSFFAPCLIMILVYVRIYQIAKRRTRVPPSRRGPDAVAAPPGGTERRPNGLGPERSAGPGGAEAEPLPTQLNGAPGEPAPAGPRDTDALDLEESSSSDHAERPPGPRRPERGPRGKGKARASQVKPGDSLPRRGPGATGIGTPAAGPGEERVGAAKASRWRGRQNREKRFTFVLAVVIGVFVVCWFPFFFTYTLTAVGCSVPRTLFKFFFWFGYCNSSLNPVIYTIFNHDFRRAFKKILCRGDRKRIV
T2 sequence (P35348 whole entry): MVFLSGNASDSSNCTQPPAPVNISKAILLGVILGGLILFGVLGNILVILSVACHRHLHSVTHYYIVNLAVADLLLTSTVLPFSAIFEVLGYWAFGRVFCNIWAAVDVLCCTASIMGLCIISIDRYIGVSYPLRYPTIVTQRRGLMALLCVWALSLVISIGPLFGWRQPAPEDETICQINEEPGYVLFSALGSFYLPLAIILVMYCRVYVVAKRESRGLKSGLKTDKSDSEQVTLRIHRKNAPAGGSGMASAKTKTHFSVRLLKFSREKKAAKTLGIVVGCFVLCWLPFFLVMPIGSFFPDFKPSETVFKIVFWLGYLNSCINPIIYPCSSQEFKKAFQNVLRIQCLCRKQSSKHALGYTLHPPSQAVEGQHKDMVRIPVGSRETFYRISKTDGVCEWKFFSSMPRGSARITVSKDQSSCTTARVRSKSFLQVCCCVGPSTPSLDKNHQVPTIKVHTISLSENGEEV

Cc1ccsc1C(=CCCN(C)[C@H]1CCCC[C@H]1C(=O)O)c1sccc1C [SBV2-114, (1R,2S)-2-((4,4-bis(3-methylthiophen-2-yl)but-3-en-yl)(methyl)amino)cyclohexanecarboxylic acid]
inhibition at 10 µM (Alpha1B): 1.9%
TD50 at 15 min [1]: 163 mg/kg
#Motor impairment/#Tested (mice; CF-1 mice, prior to MES, 50 mg/kg i.p., 15 min): 0/3
#Motor impairment/#Tested (mice; CF-1 mice, prior to MES, 100 mg/kg i.p., 15 min): 0/4
#Motor impairment/#Tested (mice; CF-1 mice, prior to MES, 125 mg/kg i.p., 15 min): 0/7
#Motor impairment/#Tested (mice; CF-1 mice, prior to MES, 150 mg/kg i.p., 15 min): 2/6
#Motor impairment/#Tested (mice; CF-1 mice, prior to MES, 200 mg/kg i.p., 15 min): 3/4
#Motor impairment/#Tested (mice; CF-1 mice, prior to s.c.PTZ, 150 mg/kg i.p., 30 min): 0/8
#Motor impairment/#Tested (mice; Frings mice, 50 mg/kg i.p., 15 min): 0/3
#Motor impairment/#Tested (mice; Frings mice, 50 mg/kg i.p., 30 min): 0/3
#Motor impairment/#Tested (mice; Frings mice, 50 mg/kg i.p., 60 min): 0/3
#Motor impairment/#Tested (mice; Frings mice, 50 mg/kg i.p., 120 min): 0/3
#Motor impairment/#Tested (mice; Frings mice, 120 mg/kg i.p., 30 min): 0/4
#Motor impairment/#Tested (mice; Frings mice, 120 mg/kg i.p., 60 min): 0/4
#Motor impairment/#Tested (mice; Frings mice, 120 mg/kg i.p., 120 min): 0/4
#Motor impairment/#Tested (mice; Frings mice, 120 mg/kg i.p., 240 min): 0/4
inhibition at 10 µM (Alpha1A): 0.1%
#Protected/#Tested (AGS Frings mice; 50 mg/kg i.p., 15 min): 3/4
#Protected/#Tested (AGS Frings mice; 50 mg/kg i.p., 30 min): 2/4
#Protected/#Tested (AGS Frings mice; 50 mg/kg i.p., 60 min): 1/4
#Protected/#Tested (AGS Frings mice; 50 mg/kg i.p., 120 min): 0/4
#Protected/#Tested (AGS Frings mice; 120 mg/kg i.p., 30 min): 4/4
#Protected/#Tested (AGS Frings mice; 120 mg/kg i.p., 60 min): 3/4
#Protected/#Tested (AGS Frings mice; 120 mg/kg i.p., 120 min): 2/4
#Protected/#Tested (AGS Frings mice; 120 mg/kg i.p., 240 min): 1/4
brain permeance (AGS Frings mice; concluded from seizure protection after i.p. dosing): brain-permeant
time-to peak (TPE) (AGS Frings mice; i.p., Frings mice, a faster TPE cannot be excluded): 15 min
inhibition at 10 µM (5-HT6): 50%
IC50 (mGAT3; ambiguous fit): > 1000 µM
Fit (mGAT3; preferred model): Ambiguous
inhibition at 10 µM (H1): 51.2%
inhibition at 10 µM (5-HT7): 14.1%
inhibition at 10 µM (Alpha2A): 42.8%
inhibition at 10 µM (Beta3): 8.3%
inhibition at 10 µM (5-HT1D): 19.6%
inhibition at 10 µM (MOR): 42%
